From paper PMC8615647, “Structural Rearrangements of a Dodecameric Ketol-Acid Reductoisomerase Isolated from a Marine Thermophilic Methanogen” (Biomolecules, 2021) come the findings set out here.

One data set addresses T1, MtKARI (Methanothermococcus thermolithotrophicus, UniProt A0A8X6EH16).
T1 construct: gene ilvC; native full-length class I enzyme purified from M. thermolithotrophicus, no tag; modelled residues 2-330 (Rossmann 2-183, knot 184-330); dodecamer 438 kDa
T1 sequence (A0A8X6EH16 1-330): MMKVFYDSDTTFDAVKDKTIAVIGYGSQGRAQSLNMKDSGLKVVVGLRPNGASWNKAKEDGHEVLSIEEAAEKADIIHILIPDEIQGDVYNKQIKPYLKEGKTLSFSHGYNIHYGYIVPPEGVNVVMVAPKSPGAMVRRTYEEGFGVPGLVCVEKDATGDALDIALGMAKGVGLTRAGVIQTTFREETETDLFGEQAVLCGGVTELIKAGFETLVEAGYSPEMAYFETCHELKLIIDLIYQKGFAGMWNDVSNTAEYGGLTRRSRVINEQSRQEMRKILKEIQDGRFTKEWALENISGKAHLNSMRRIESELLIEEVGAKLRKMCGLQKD
Kind of data set: X-ray crystallography. Conditions: open state, 2.2 A; crystal soaked with 50 mM L-tartrate, 20 mM NADP, 50 mM MgCl2; Mg2+-free, pH 6.5; substrate analogue at the nicotinamide site. The data set is classed as binding.

Data set [1] deals with the molecule itself. Kind of data set: native gel or EMSA; hrCN-PAGE, 5 to 15% gradient gel, 2 ug enriched MtKARI; cathode buffer with 0.05% sodium deoxycholate and 0.01% dodecyl maltoside, pH 7.

Take `O=C(O)[C@H](O)[C@@H](O)C(=O)O` [L-tartrate]: on MtKARI, the X-ray crystallography entry was “tartrate takes the vacant position of the nicotinamide group of NADPH and is loosely bound”.

B1: Ketol-acid reductoisomerase from Methanothermococcus thermolithotrophicus (enzyme, UniProt A0A8X6EH16 1-330, looked up)
chain: MMKVFYDSDTTFDAVKDKTIAVIGYGSQGRAQSLNMKDSGLKVVVGLRPNGASWNKAKEDGHEVLSIEEAAEKADIIHILIPDEIQGDVYNKQIKPYLKEGKTLSFSHGYNIHYGYIVPPEGVNVVMVAPKSPGAMVRRTYEEGFGVPGLVCVEKDATGDALDIALGMAKGVGLTRAGVIQTTFREETETDLFGEQAVLCGGVTELIKAGFETLVEAGYSPEMAYFETCHELKLIIDLIYQKGFAGMWNDVSNTAEYGGLTRRSRVINEQSRQEMRKILKEIQDGRFTKEWALENISGKAHLNSMRRIESELLIEEVGAKLRKMCGLQKD
notes: ketol-acid reductoisomerase (EC 1.1.1.86), class I, of Methanothermococcus thermolithotrophicus DSM 2095; native enzyme; model with Rossmann domain (2-183) and knot domain (184-330); stretch 47-53 is printed as LRPNGAS; Native protein without tags, identified by MALDI-TOF-MS; The crystals held NADP and Mg2+ (close state) or NADP and tartrate (open state); also called MtKARI; KARI; source: …
Take B1: the “stoichiometry N” value in data set [1] was 12.

What is called stoichiometry N is the number of molecules, sites or subunits per partner or assembly.
